The source of these data is ChEMBL document CHEMBL1130917, “The design, synthesis, and structure-activity relationships of a series of macrocyclic MMP inhibitors” (Bioorg Med Chem Lett, 1998).

For experiment [1], the target named is T1, Interstitial collagenase (Homo sapiens, UniProt P03956).
T1 sequence (P03956 whole entry): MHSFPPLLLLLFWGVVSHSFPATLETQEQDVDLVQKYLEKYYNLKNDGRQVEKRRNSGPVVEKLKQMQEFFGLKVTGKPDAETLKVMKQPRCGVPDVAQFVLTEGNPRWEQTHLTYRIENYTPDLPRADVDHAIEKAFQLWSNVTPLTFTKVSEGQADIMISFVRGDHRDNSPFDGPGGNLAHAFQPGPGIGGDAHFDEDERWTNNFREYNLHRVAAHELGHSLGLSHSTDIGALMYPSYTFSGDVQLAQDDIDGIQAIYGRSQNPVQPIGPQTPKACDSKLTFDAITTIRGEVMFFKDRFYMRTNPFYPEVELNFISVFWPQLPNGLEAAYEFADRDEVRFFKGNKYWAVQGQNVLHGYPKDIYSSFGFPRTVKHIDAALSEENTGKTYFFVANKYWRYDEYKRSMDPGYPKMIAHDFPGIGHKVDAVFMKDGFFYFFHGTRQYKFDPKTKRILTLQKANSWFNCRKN
The experiment is described as follows: Inhibition of fibroblast collagenase (MMP-1).

For experiment [2], the target named is T2, Matrilysin (Homo sapiens, UniProt P09237).
T2 sequence (P09237 whole entry): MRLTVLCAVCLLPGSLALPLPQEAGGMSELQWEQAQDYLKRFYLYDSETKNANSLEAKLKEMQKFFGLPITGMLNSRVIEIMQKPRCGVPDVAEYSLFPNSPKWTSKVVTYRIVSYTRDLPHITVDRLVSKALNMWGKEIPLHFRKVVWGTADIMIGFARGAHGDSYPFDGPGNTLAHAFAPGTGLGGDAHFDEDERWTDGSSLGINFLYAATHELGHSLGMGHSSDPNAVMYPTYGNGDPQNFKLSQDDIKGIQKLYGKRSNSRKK
The experiment is described as follows: Inhibition of fibroblast matrilysin (MMP-7).

For experiment [3], the target named is Stromelysin-1 (Homo sapiens, UniProt P08254). Nature of the experiment: Inhibition of fibroblast stromelysin (MMP-3).
The target in experiment [4] is 72 kDa type IV collagenase (Homo sapiens, UniProt P08253). Nature of the experiment: Inhibition of fibroblast gelatinase A (MMP-2).

Some results are limits rather than exact numbers.

72 kDa type IV collagenase, sequence (P08253 whole entry): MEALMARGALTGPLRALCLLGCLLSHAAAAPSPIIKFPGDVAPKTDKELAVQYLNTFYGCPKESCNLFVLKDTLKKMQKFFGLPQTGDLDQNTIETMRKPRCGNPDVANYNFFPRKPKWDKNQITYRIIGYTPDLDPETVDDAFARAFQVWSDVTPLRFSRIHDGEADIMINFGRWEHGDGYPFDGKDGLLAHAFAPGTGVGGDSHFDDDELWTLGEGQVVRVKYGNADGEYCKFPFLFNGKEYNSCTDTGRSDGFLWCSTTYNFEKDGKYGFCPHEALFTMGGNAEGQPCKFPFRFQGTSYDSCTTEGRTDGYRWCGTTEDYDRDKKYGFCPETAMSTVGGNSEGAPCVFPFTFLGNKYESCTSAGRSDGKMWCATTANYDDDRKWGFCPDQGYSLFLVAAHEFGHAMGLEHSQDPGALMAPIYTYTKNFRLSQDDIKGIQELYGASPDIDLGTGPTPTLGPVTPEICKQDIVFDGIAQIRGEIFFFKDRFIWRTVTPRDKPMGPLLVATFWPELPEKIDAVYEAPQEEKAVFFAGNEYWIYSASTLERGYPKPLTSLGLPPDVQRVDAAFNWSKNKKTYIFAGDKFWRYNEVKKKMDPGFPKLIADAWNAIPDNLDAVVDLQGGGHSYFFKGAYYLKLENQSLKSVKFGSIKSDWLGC
Stromelysin-1, sequence (P08254 whole entry): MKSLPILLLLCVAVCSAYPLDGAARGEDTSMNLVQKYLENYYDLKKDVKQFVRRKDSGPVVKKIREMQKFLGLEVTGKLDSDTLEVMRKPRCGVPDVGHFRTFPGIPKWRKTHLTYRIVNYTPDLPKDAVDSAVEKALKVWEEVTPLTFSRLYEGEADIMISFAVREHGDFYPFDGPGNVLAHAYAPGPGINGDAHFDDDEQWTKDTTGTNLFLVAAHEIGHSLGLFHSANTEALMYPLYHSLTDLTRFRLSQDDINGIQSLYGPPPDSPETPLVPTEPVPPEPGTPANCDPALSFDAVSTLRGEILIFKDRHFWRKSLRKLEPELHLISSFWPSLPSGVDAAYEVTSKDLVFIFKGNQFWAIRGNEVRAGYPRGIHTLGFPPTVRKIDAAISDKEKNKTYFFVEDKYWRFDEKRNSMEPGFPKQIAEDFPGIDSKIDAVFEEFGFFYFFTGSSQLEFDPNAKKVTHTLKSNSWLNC

For `CNC(=O)[C@@H]1Cc2ccc(cc2)OCCCC[C@H](C(=O)NO)[C@@H](CCCCOCc2ccccc2)C(=O)N1`, the half-maximal inhibitory concentration (IC50) in experiment [1] came to 210 nM; in experiment [2], 180 nM; in experiment [3], 1.8 nM; in experiment [4], 0.3 nM.

As to `CC(C)C[C@H]1C(=O)N[C@H](C(=O)Nc2ccccn2)Cc2ccc(cc2)OCCCC[C@@H]1C(=O)NO`, the IC50 in experiment [1] came out at 4.6 nM; in experiment [2] it was 1.6 nM; in experiment [4], 2.1 nM.

For the compound `CNC(=O)[C@@H]1Cc2ccc(cc2)OCCCC[C@H](C(=O)NO)[C@@H](CC(C)C)C(=O)N1`, the half-inhibitory concentration (IC50) was found to be 1.8 nM in experiment [1], 1.6 nM in experiment [2] and 2.2 nM in experiment [4].

Take `CNC(=O)[C@@H]1Cc2ccc(cc2)OCCCCCC[C@H](C(=O)NO)[C@@H](CC(C)C)C(=O)N1`: the figures for the IC50 in experiment [1], in experiment [2] and in experiment [4] were 2.2 nM, 5.7 nM and 5.9 nM, respectively.

In the case of `CC(C)C[C@H]1C(=O)N[C@H](C(=O)NCCc2ccc(S(N)(=O)=O)cc2)Cc2ccc(cc2)OCCCC[C@@H]1C(=O)NO`, the IC50 in experiment [1] was 3 nM; in experiment [2] it was 25 nM; in experiment [4], 1.9 nM.

With `CNC(=O)[C@@H]1Cc2ccc(cc2)OCCC[C@H](C(=O)NO)[C@@H](CC(C)C)C(=O)N1`, the IC50 was 3 nM in experiment [1], 3 nM in experiment [2] and 2.6 nM in experiment [4].

For `CNC(=O)[C@@H]1Cc2ccc(cc2)OCCCCC[C@H](C(=O)NO)[C@@H](CC(C)C)C(=O)N1`, the IC50 turned out to be 2.1 nM in experiment [1], 2.6 nM in experiment [2] and 2.3 nM in experiment [4].

For the compound `CNC(=O)[C@@H]1Cc2ccc(cc2)OCCCC[C@@H](C(=O)NO)[C@@H](CC(C)C)C(=O)N1`, the results for the IC50 in experiment [1], in experiment [2] and in experiment [4] were 110 nM, 440 nM and 230 nM, respectively.

Regarding `CNC(=O)[C@@H]1Cc2ccc(cc2)OCCCC[C@H](C(=O)NO)[C@@H](CCCc2ccc(C)cc2)C(=O)N1`, the IC50 in experiment [1] came out at 6.1 nM; in experiment [2], 2.8 nM; in experiment [3], 9.1 nM; in experiment [4], 0.8 nM.

For `CNC(=O)[C@@H]1Cc2ccc(cc2)OCCCCC[C@H](C(=O)O)[C@@H](CC(C)C)C(=O)N1`, the IC50 came out at 1400 nM in experiment [1], 110 nM in experiment [2], 75 nM in experiment [3] and 1400 nM in experiment [4].

`CCCc1ccc(CC[C@H]2C(=O)N[C@H](C(=O)NC)Cc3ccc(cc3)OCCCC[C@@H]2C(=O)NO)cc1`: the figures for the IC50 in experiment [1], in experiment [2] and in experiment [4] were 54 nM, 5.9 nM and 0.1 nM, respectively.

Turning to `CNC(=O)[C@@H]1Cc2ccc(cc2)OCCC[C@H](C(=O)O)[C@@H](CC(C)C)C(=O)N1`, the IC50 is above 10000 nM in experiment [1], 900 nM in experiment [2] and 14000 nM in experiment [4].

For `CSCCNC(=O)[C@@H]1Cc2ccc(cc2)OCCCC[C@H](C(=O)NO)[C@@H](CC(C)C)C(=O)N1`, the IC50 in experiment [1] is 2.7 nM; in experiment [2], 2.5 nM; in experiment [3], 4.2 nM; in experiment [4] it was 3.8 nM.

For the compound `CC(C)C[C@H]1C(=O)N[C@H](C(=O)NCCN(C)C)Cc2ccc(cc2)OCCCC[C@@H]1C(=O)NO`, the IC50 turned out to be 6.6 nM in experiment [1], 4.2 nM in experiment [2], 12 nM in experiment [3] and 6.5 nM in experiment [4].

By IC50 is commonly meant the point on the concentration scale where inhibition reaches its midpoint. The low end stands for inhibition by little substance, the high end for a need for much substance.
